In PMC11982498 (Redox Biology, 2025):
Several values for one entry are separate records, joined by “and”; a condition that tells them apart may be missing. Equal values may be shown once.

Tests used:
[1] = tested on: BCL-2 gene transcription in SH-SY5Y cells; experiment: Real-time RT-PCR in SH-SY5Y cells, BCL-2; assay type: cell-based, human
Experimental: (§1) SH-SY5Y cells were treated with or without B14, and total RNA was subsequently isolated and purified. Reverse transcription was performed using a cDNA synthesis kit. The relative transcription levels of the genes were evaluated through quantitative real-time PCR using the SYBR Green-based method, as described in the Supplementary Date. Details regarding the primer sequences and the raw data can be found in Table S7 and Table S8.
(§2) ^a -∆∆Ct = -[(Ct value of genes in treated sample - Ct value of genes in control) - (Ct value of β-actin in treated sample - Ct value of β-actin in control)]. ^b F: The relative expression fold.
(§3) Experiment 1: SH-SY5Y cells were treated with different concentration of B14. The Ct values of BAX, VEGF, CMYC and BCL-2 were obtained.
(§4) Total RNA was extracted from cells and mice liver tissue using RNAiso Plus (Takara, 9109, Japan). Following sample homogenization, chloroform was added, and the solution was allowed to have phase separation into an upper aqueous layer (containing RNA), an interphase, and a lower organic layer (containing DNA and proteins). RNA was precipitated from the aqueous phase using isopropanol, while DNA was precipitated from the aqueous-organic interphase using ethanol. Complementary DNA (cDNA) was synthesized using the One-Step RT-PCR Kit (Takara, Cat#639503, Japan).
(§5) Quantitative real-time polymerase chain reaction (qRT-PCR) was performed using the 2× RealStar SYBR Mixture (GenStar, Cat# A301-10, Guangzhou, China) on a LightCycler 480 II real-time PCR system (Roche, USA). Data were analyzed using the 2^−ΔΔCt method. Actin served as the internal control, and relative mRNA levels were normalized accordingly.

[2] = tested on: BCL-2(G4) (DNA, G4) AGGGGCGGGCGCGGGAGGAAGGGGGCGGGAGCGGGGCTG; experiment: ESI-MS; conditions: K+ 100 mM KCl plus potassium phosphate; BPES buffer, pH 7.4; no adduct peak
SH-SY5Y cells = experiment: FITC Annexin V/PI cell apoptosis analysis in Aβ1-42 model; assay type: cell-based; conditions: 25 μM Aβ1-42 induced model
Experimental: The FITC Annexin V/PI apoptosis analysis was conducted using the FITC Annexin V/PI Apoptosis Detection Kit (Muti sciences, 70-AP101-100). Cells were treated with varying concentrations of B14 in a 6-well plate containing a cell model induced with 25 μM Aβ1-42. After digestion and resuspension in 500 μL binding buffer, samples were incubated with 5 μL of FITC Annexin V for 5 minutes, followed by the addition of 5 μL PI for further incubation at room temperature for 10 minutes. Flow cytometry analysis (Millipore, guava easy Cyte) was used to measure fluorescence intensity, and data analysis was performed using Flow jo V10.

ILPR promoter i-motif = experiment: SPR binding to ILPR promoter i-motif; conditions: MES buffer pH 5.5
[3] = tested on: C-MYC gene transcription in SH-SY5Y cells; experiment: Real-time RT-PCR in SH-SY5Y cells, C-MYC; assay type: cell-based, human
Experimental: as §1, §2, §3, §4, §5

BCL-2 promoter i-motif = experiment: TO displacement assay, BCL-2 i-motif; assay type: binding; conditions: BPES buffer pH 5.5
Experimental: Figure S4. TO displacement and UV titration experiments were performed to examine the effects of B14 and A22 on BCL-2 promoter i-motif. (A-B) TO displacement was performed on BCL-2 promoter i-motif annealed in 1XBPES buffer at pH 5.5 with increasing amount of B14 and A22. (C) The above relative TO displacement ratio were statistically analyzed.
(§6) DNA oligonucleotides were diluted to 1 μM with 1 × PBES buffer at pH 5.5, annealed at 95 °C for 10 min, cooled to room temperature, and stored at 4 °C for future use. TO dye (1 μM) was added to the DNA solution followed with incubation for 1 h. The spectra of 100 μL mixture with addition of different equivalent compounds at 25 °C were recorded based on fluorescence emission (λex = 480 nm).
(§7) TO displacement ratio (%) = (F0 − FC) / (F0 − FB) * 100.
(§8) F0 and FC were the fluorescence intensity of TO at 536 nm with DNA before and after adding compounds, respectively. FB was the fluorescence intensity of TO at 536 nm with buffer only.

BCL-2 G4 = experiment: ESI-MS with BCL-2 G4; assay type: binding; conditions: pH 7.4
Experimental: The oligomer for BCL-2 promoter […] at concentration of 5 μM was annealed in 1 × BPES buffer with or without 20 μM B14 at 95 °C for 5 min, followed by cooling to room temperature. Mass spectrometry signals were collected by using ESI-MS (Thermo, LCQ DECA Plus XP) and analyzed by using pro-mass.
Figure S5. ESI-MS, UV, CD, and EMSA experiments were performed to examine the effect of B14 on BCL-2 promoter i-motif and G-quadruplex. (A) ESI-MS experiment for oligomer BCL-2 G4 alone, which was annealed in 1 × BPES buffer at pH 7.4. (B) ESI-MS experiment for above oligomer BCL-2 G4 with addition of B14 in 1 × BPES buffer at pH 7.4. (C-D) TO displacement with increasing amount of oligomer BCL-2 i-motif annealed in 1 X BPES buffer at pH 5.5 in the presence of 20 equivalents of B14 or A22. (E) EMSA experiment was performed for the effect of B14 on inducing BCL-2 i-motif formation. The lanes from left to right were as follow: BCL-2 i-motif alone at pH 5.5; BCL-2 i-motif alone at pH 6.2; BCL-2 i-motif plus 1 eq B14 at pH 6.2; BCL-2 i-motif plus 5 eq B14 at pH 6.2; BCL-2 i-motif plus 10 eq B14 at pH 6.2. (F) CD experiment was performed to study the interaction of B14 or A22 with BCL-2 promoter i-motif.

RET promoter i-motif = experiment: TO displacement assay, RET i-motif; assay type: binding
Experimental: as §6, §7, §8

For O=C(CCN1CCOCC1)Nc1ccc2c(c1)c(=O)c1cc(NC(=O)CCN3CCOCC3)ccc1n2-c1ccc2occc2c1 [Compound B14], the “-∆∆Ct, BCL-2” value ([1]; 6.25 μM B14) was -0.31, the “F = 2^-∆∆Ct (relative expression fold), BCL-2” value ([1]; 6.25 μM B14) was 1.23 and the “-∆∆Ct, BCL-2” value ([1]; 12.5 μM B14) was -0.73. For the same compound, the “F = 2^-∆∆Ct (relative expression fold), BCL-2” value ([1]; 12.5 μM B14) was 1.65, the “-∆∆Ct, BCL-2” value ([1]; 25 μM B14) was -1.11 and the “F = 2^-∆∆Ct (relative expression fold), BCL-2” value ([1]; 25 μM B14) was 2.15. For the same compound, the binding [2] was “no”, the apoptosis ratio (SH-SY5Y cells) was “decreased in a dose-dependent manner” and the Kd (ILPR promoter i-motif) was greater than 50 µM. For the same compound, the “-∆∆Ct, C-MYC” value ([3]; 6.25 μM B14) was -0.01, the “F = 2^-∆∆Ct (relative expression fold), C-MYC” value ([3]; 6.25 μM B14) was 1.00 and the “-∆∆Ct, C-MYC” value ([3]; 12.5 μM B14) was -0.02. The “F = 2^-∆∆Ct (relative expression fold), C-MYC” value ([3]; 12.5 μM B14) was 1.01, the “-∆∆Ct, C-MYC” value ([3]; 25 μM B14) was -0.03 and the “F = 2^-∆∆Ct (relative expression fold), C-MYC” value ([3]; 25 μM B14) was 1.02. The “Relative TO displacement ratio” value (BCL-2 promoter i-motif) was 65% and 65.7%, the “adduct peak in ESI-MS” value (BCL-2 G4) was “no corresponding binding peak appeared” and the TO displacement ratio (RET promoter i-motif) was 27%.
